# Measured values reported in publication PMC12279208, “Targeted Penetrating Motif Engineering of BH3 Mimetic: Harnessing Non‐Canonical Amino Acids for Coinhibition of MCL‐1 and BCL‐xL in Acute Myeloid Leukemia” (Advanced Science, 2025).
# Square brackets hold non-standard residues; d marks the D form. Peptide text beside a SMILES is read from it. Bpa = N[C@@H](Cc1ccc(C(=O)c2ccccc2)cc1)C(=O)O; Phe(4-Me) = Cc1ccc(C[C@H](N)C(=O)O)cc1; Met(O2) = CS(=O)(=O)CC[C@H](N)C(=O)O; Chg = N[C@H](C(=O)O)C1CCCCC1
# Legend:
# AML cells (THP-1) = test: CCK-8 cytotoxicity for selectivity, 24 h; format: cell-based; conditions: Homo sapiens; THP-1, CCK-8, 24-hour incubation, n = 5
# Description: (§1) The IC50 values of peptide drugs were determined in the experiments using the CCK-8 assay after a 24-hour incubation. The human acute leukemia cell line THP-1 was used as the leukemia cell model, while normal HSCs served as the control group. Higher SI values indicate greater selectivity of the peptide for leukemia cells over normal cells.
# [1] = system: HSCs (CD34+ hematopoietic stem cells from cord blood); test: CCK-8 cytotoxicity for selectivity, 24 h; format: cell-based; conditions: Hematopoietic stem cell; human cord blood CD34+ HSCs, CCK-8, 24-hour incubation, n = 5; read-out: HSC IC50
# Description: as §1
# [2] = system: AML cells (THP-1) relative to HSCs; test: Selectivity index calculation; format: cell-based, human; conditions: n = 5
# Description: The selectivity index (SI) was calculated to assess the specificity of peptide drugs toward leukemia cells relative to normal human HSCs. The SI is defined as the ratio of the IC50 value for HSCs to the IC50 value for leukemia cell lines, as shown in the following formula:
# SI=IC50HSCsIC50leukemia cells
# as §1
# MCL-1 = target: T1, MCL-1 (Homo sapiens, UniProt Q07820); test: Cell-free TR-FRET inhibition of MCL-1 binding to its peptide ligand; conditions: 3 h at room temperature, 0.25-1000 nM, n = 4
# T1 construct: purchased BPS Biosciences 79506
# Description: (§2) The inhibition of MCL-1 and BCL-xL binding to their respective ligands was quantified using time-resolved fluorescence resonance energy transfer (TR-FRET) assay kits (BPS Biosciences, Catalog Nos. 79506 and 50223). […] All samples and controls were run in quadruplicate, ensuring a final DMSO concentration below 0.1%. Selected hit compounds were tested at various concentrations: 0.25, 0.5, 1, 2, 4, 8, 16, 32, 64, 125, 500, and 1000 nM. The test assay components were prepared as follows: A 3× MCL TR-FRET assay buffer was diluted with two parts distilled water to create a 1× MCL TR-FRET assay buffer. The anti-His terbium-labeled donor and dye-labeled acceptor were diluted 200-fold in 1× MCL TR-FRET assay buffer. Each well received 5 μL of the anti-His terbium-labeled donor and dye-labeled acceptor mixture. In the negative control wells, 2 μL of inhibitor buffer and 1× MCL-1 TR-FRET assay buffer were added. For the positive control wells, 2 μL of inhibitor buffer and the MCL-1 peptide ligand were added. Subsequently, 2 μL of the diluted test inhibitor solution and the MCL-1 peptide ligand were added to the test inhibitor wells. Finally, 3 μL of diluted MCL-1 protein solution was added to each well, and the plate was incubated at room temperature for 3 hours.
# (§3) TR-FRET Ratio=Emission at 665 nmEmission at 620 nm
# (§4) The percent activity was calculated as follows:
# (§5) Percent Activity=FRETsample-FRETnegFRETp-FRETneg×100%
# (§6) where FRETsample is the sample FRET, FRETneg is the negative control FRET, and FRETp is the positive control FRET.
# BCL-xL = target: T2, BCL-xL (Homo sapiens, UniProt Q07817); test: Cell-free TR-FRET inhibition of BCL-xL binding to its peptide ligand; conditions: 3 h at room temperature, 0.25-1000 nM, n = 4
# T2 construct: His; purchased BPS Biosciences 50223
# Description: as §2, §3, §4, §5, §6
# THP-1 cells = test: Apoptosis detection, Annexin V-FITC/PI flow cytometry; format: cell-based, human; conditions: THP-1, Venetoclax 0.8 µM, 48 h
# Description: (§7) Cell apoptosis was measured following the manufacturer's instructions for the Annexin V-FITC kit (Elabscience, E-CK-A211-100). 1 × 10⁵ cells were co-cultured with varying concentrations of peptides or Venetoclax in 24-well plates for 48 hours. After incubation, the cells were collected by centrifugation, washed with PBS, and incubated with Annexin V-FITC and PI staining solution for 15 minutes under light-protected conditions. Apoptosis was then identified and analyzed using a flow cytometer (Beckman CytoFLEX, USA)[18].
# U-937 cells = test: as above; format: cell-based, human; conditions: U-937, Venetoclax 8 µM, 48 h
# Description: as §7
# [3] = system: THP-1 luciferase-transplanted xenografts; test: AML mouse model, THP-1 luciferase xenograft
# Description: To establish the AML mouse model, the animals were intravenously (IV) injected with luciferase-transfected THP-1 cells (THP-1 luciferase; 1 × 10⁶ cells/200 μL). The mice were randomly assigned to one of five experimental groups. […] Venetoclax was formulated for oral administration in a solution comprising 60% phosal 50 propylene glycol (PG), 30% polyethylene glycol (PEG) 400, and 10% ethanol, provided by MedChemExpress[30]. Before administration, both Venetoclax and BH3 peptide stock solutions were freshly diluted to working concentrations with sterile normal saline. The mice were anesthetized and administered 200 µL of a 15 mg/mL luciferase substrate, D-luciferin potassium salt (Beyotime Biotech, ST196-500mg), intraperitoneally. The progression of AML dissemination in mice was monitored until the day of euthanasia using an in vivo optical imaging system (Tanon ABL-X6; Tanon, Shanghai, China). The results were expressed as total flux (photons/s; radiance photons) ± standard deviation (SD) in both in vivo and ex vivo studies. The extent of the leukemia burden was determined by flow cytometry of peripheral blood human CD45+ cells. During the third and fourth weeks of the study, blood was collected from the orbital sinuses of mice in each group. […] Flow cytometry was employed to ascertain the expression of hCD45 in PBMCs. […] Following the completion of the designated treatment period, five mice from each group were randomly selected and euthanized by CO₂ asphyxiation. […] The bone marrow (from the tibia and femur), spleen, and liver were minced and made into single-cell suspensions in PBS, followed by red blood cell lysis. The cells were then stained with hCD45-PE antibody and analyzed by flow cytometry.
# Liver, lung, kidney, spleen, and left femur tissues were formalin-fixed and paraffin-embedded. Bone tissue was decalcified with 10% EDTA decalcification solution prior to paraffin embedding. Paraffin blocks were then sectioned at 2-4 μm thickness and mounted on microscope slides. Tissue sections were deparaffinized and rehydrated using 100% xylene and ethanol solutions of decreasing concentrations.
# T2 sequence (Q07817 whole entry): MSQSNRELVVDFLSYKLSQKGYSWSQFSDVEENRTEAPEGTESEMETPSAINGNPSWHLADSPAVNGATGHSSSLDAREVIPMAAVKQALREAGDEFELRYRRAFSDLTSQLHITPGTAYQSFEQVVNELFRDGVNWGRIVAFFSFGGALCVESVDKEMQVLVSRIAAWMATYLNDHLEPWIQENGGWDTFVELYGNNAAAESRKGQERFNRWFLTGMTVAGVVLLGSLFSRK
# T1 sequence (Q07820 whole entry): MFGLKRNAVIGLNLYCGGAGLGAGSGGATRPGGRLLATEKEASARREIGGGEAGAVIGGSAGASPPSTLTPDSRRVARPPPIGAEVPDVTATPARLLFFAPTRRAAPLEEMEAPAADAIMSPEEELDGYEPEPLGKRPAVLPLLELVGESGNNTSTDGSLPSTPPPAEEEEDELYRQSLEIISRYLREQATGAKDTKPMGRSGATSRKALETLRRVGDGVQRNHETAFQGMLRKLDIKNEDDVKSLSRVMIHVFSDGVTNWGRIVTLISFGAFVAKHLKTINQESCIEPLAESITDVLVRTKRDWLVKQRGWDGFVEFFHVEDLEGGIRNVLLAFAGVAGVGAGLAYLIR
SMILES,IC50 (MCL-1) [nM],IC50 (BCL-xL) [nM],other results
"Cc1cc2c(C(C)C)c(O)c(O)c(C=O)c2c(O)c1-c1c(C)cc2c(C(C)C)c(O)c(O)c(C=O)c2c1O [AT-101, (R)-(-)-Gossypol]",,,"IC50 (AML cells (THP-1)): 18900 nM; IC50 [1]: 67700 nM; Selectivity index (SI) combined with Venetoclax ([2]; IC50 HSCs / IC50 THP-1, in combination with Venetoclax (concentration not given)): 3.85; Selectivity index (SI) ([2]; IC50 HSCs / IC50 leukemia cells (THP-1), single agent): 3.56"
CC[C@H](C)[C@H](NC(=O)[C@H](CCCNC(=N)N)NC(=O)[C@H](CCCNC(=N)N)NC(=O)[C@H](CC(C)C)NC(=O)[C@H](CCC(=O)O)NC(=O)[C@H](CCC(N)=O)NC(=O)[C@H](C)NC(=O)[C@@H](NC(=O)[C@H](Cc1c[nH]c2ccccc12)NC(=O)[C@H](CCS(C)(=O)=O)NC(=O)[C@H](Cc1ccc(C(=O)c2ccccc2)cc1)NC(=O)[C@@H]1CCCN1)C1CCCCC1)C(=O)NCC(=O)N[C@@H](CC(=O)O)C(=O)N[C@@H](CCC(=O)O)C(=O)N[C@@H](Cc1ccc(C)cc1)C(=O)N[C@@H](CC(N)=O)C(=O)N[C@@H](C)C(=O)N[C@@H](Cc1ccc(O)cc1)C(=O)N[C@@H](Cc1ccc(O)cc1)C(=O)N[C@@H](C)C(N)=O [B] (H-P[Bpa][Met(O2)]W[Chg]AQELRRIGDE[Phe(4-Me)]NAYYA-NH2),122,412,
CC[C@H](C)[C@H](NC(=O)[C@H](CCCNC(=N)N)NC(=O)[C@H](CCCNC(=N)N)NC(=O)[C@H](CC(C)C)NC(=O)[C@H](CCC(=O)O)NC(=O)[C@H](CCC(N)=O)NC(=O)[C@H](C)NC(=O)[C@@H](NC(=O)[C@H](Cc1c[nH]c2ccccc12)NC(=O)[C@H](CCS(C)(=O)=O)NC(=O)[C@H](CCC(=O)O)NC(=O)[C@@H]1CCCN1)C1CCCCC1)C(=O)NCC(=O)N[C@@H](CC(=O)O)C(=O)N[C@@H](CCC(=O)O)C(=O)N[C@@H](Cc1ccc(C)cc1)C(=O)N[C@@H](CC(N)=O)C(=O)N[C@@H](C)C(=O)N[C@@H](Cc1ccc(O)cc1)C(=O)N[C@@H](Cc1ccc(O)cc1)C(=O)N[C@@H](C)C(N)=O [C] (H-PE[Met(O2)]W[Chg]AQELRRIGDE[Phe(4-Me)]NAYYA-NH2),48.9,278,
CC[C@H](C)[C@H](NC(=O)[C@H](CCCNC(=N)N)NC(=O)[C@H](CCCNC(=N)N)NC(=O)[C@H](CC(C)C)NC(=O)[C@H](CCC(=O)O)NC(=O)[C@H](CCC(N)=O)NC(=O)[C@H](C)NC(=O)[C@@H](NC(=O)[C@H](Cc1c[nH]c2ccccc12)NC(=O)[C@@H](NC(=O)[C@H](CCC(=O)O)NC(=O)[C@@H]1CCCN1)[C@@H](C)CC)C1CCCCC1)C(=O)NCC(=O)N[C@@H](CC(=O)O)C(=O)N[C@@H](CCC(=O)O)C(=O)N[C@@H](Cc1ccc(C)cc1)C(=O)N[C@@H](CC(N)=O)C(=O)N[C@@H](C)C(=O)N[C@@H](Cc1ccc(O)cc1)C(=O)N[C@@H](Cc1ccc(O)cc1)C(=O)N[C@@H](C)C(N)=O [D] (H-PEIW[Chg]AQELRRIGDE[Phe(4-Me)]NAYYA-NH2),25.4,58.5,
CC[C@H](C)[C@H](NC(=O)[C@H](CCCNC(=N)N)NC(=O)[C@H](CCCNC(=N)N)NC(=O)[C@H](CC(C)C)NC(=O)[C@H](CCC(=O)O)NC(=O)[C@H](CCC(N)=O)NC(=O)[C@H](C)NC(=O)[C@@H](NC(=O)[C@H](Cc1c[nH]c2ccccc12)NC(=O)[C@@H](NC(=O)[C@H](CCC(=O)O)NC(=O)[C@@H]1CCCN1)[C@@H](C)CC)C1CCCCC1)C(=O)NCC(=O)N[C@@H](CC(=O)O)C(=O)N[C@@H](CCC(=O)O)C(=O)N[C@@H](Cc1ccccc1)C(=O)N[C@@H](CC(N)=O)C(=O)N[C@@H](C)C(=O)N[C@@H](Cc1ccc(O)cc1)C(=O)N[C@@H](Cc1ccc(O)cc1)C(=O)N[C@@H](C)C(N)=O [F] (H-PEIW[Chg]AQELRRIGDEFNAYYA-NH2),9.77,30.8,
CC[C@H](C)[C@H](NC(=O)[C@H](CCCNC(=N)N)NC(=O)[C@H](CCCNC(=N)N)NC(=O)[C@H](CC(C)C)NC(=O)[C@H](CCC(=O)O)NC(=O)[C@H](CCC(N)=O)NC(=O)[C@H](C)NC(=O)[C@@H](NC(=O)[C@H](Cc1c[nH]c2ccccc12)NC(=O)[C@H](CCS(C)(=O)=O)NC(=O)[C@H](Cc1ccc(C(=O)c2ccccc2)cc1)NC(=O)[C@@H]1CCCN1)[C@@H](C)CC)C(=O)NCC(=O)N[C@@H](CC(=O)O)C(=O)N[C@@H](CCC(=O)O)C(=O)N[C@@H](Cc1ccc(C)cc1)C(=O)N[C@@H](CC(N)=O)C(=O)N[C@@H](C)C(=O)N[C@@H](Cc1ccc(O)cc1)C(=O)N[C@@H](Cc1ccc(O)cc1)C(=O)N[C@@H](C)C(N)=O [G] (H-P[Bpa][Met(O2)]WIAQELRRIGDE[Phe(4-Me)]NAYYA-NH2),206,565,
CC1(C)CCC(CN2CCN(c3ccc(C(=O)NS(=O)(=O)c4ccc(NCC5CCOCC5)c([N+](=O)[O-])c4)c(Oc4cnc5[nH]ccc5c4)c3)CC2)=C(c2ccc(Cl)cc2)C1 [Venetoclax],,,"Apoptosis (THP-1 cells): 47.3%; Apoptosis (U-937 cells): 49.3%; Average body weight at study end ([3]; 30 days, same regimens, n = 12, Vehicle ≈19 g): ≈ 20 g; Bioluminescence (tumor burden) over 30 days ([3]; Venetoclax 25 mg kg−1 p.o., TAT-I or vMIP-II-TAT-I 1.5 µmol kg−1 i.v., Combination both, every 2 days, n = 5): minimal therapeutic efficacy; Median survival ([3]; Venetoclax 25 mg kg−1 p.o., TAT-I or vMIP-II-TAT-I 1.5 µmol kg−1 i.v., Combination both, every 2 days, n = 7, Vehicle 35 days): 37 days; hCD45+ cells in PBMCs ([3]; week 3, flow cytometry, n = 5, Vehicle ≈7%): ≈ 5%"
